Reference: patent US6488966B2, “Composition and method for reducing the risk of carcinogenesis” (The Trustees of Dartmouth College, priority 1998, dated 2002)
Like-named read-outs stand apart in the source and are kept apart here.

Columns and labels:
colorectal adenomas = system: colorectal adenomas
Source text: Dartmouth was the coordinating center and the University of Minnesota was the pathology center. Human subjects committees at each center approved the study protocol; an independent safety and data monitoring committee reviewed the study semi-annually.
Staff at each clinical center monitored colonoscopy and pathology records at associated endoscopy units to identify patients with at least one histologically-confirmed large bowel adenoma removed within three months of recruitment, and with the entire large bowel mucosa subsequently examined and judged free of remaining polyps.
(§1) We reviewed data from 2,918 apparently eligible patients. […] The trial was double-blind; neither subjects nor study staff were told the subjects' treatment assignments.
Subjects received two follow-up colonoscopies as part of their routine clinical care, generally by the same physician who conducted the qualifying exam. The first follow-up examination was planned for approximately one year after the qualifying colonoscopy (about nine months after randomization), and a second follow-up examination was planned for thirty-six months after that. Large bowel endoscopy was otherwise discouraged unless clinically indicated (e.g., for rectal bleeding). Follow-up examinations were considered “adequate” if the entire large bowel mucosa was visualized, and no polyps remained at the end of the procedure. We designated the time from randomization to the first follow-up exam as the first study interval, and the period after the first follow-up exam up to (and including) the second follow-up colonoscopy as the second study interval.
At each colonoscopy, the endoscopist recorded the size and location of all mucosal lesions, using standard clinical technique. […] In cases of disagreement, we accepted the study pathologist's diagnosis.
The primary endpoint of the trial was the proportion of subjects having at least one adenoma detected during the second study interval, i.e., after the first follow-up colonoscopy, up to and including the second follow-up examination (including adenomas detected during interim endoscopies).
(§2) For our statistical analyses, we compared proportions using Fisher's exact test, and measured data using t-tests or rank tests (Snedecor and Cochran, Statistical Methods, Seventh Edition, Ames: Iowa State University Press, 1980). […] To address the first issue, we used overdispersed log-linear quasi-likelihood models programmed in SPlus (Seattle) to provide unadjusted and adjusted estimates and confidence intervals for the relative risk of at least one recurrent adenoma (McCullagh and Nelder, Generalized Linear Models (Second Edition), Chapman-Hall, 1989). […] Co-variates included age (linear term), gender, the lifetime number of adenomas before study entry, clinical center, and the length of the surveillance interval. Possible interactions were considered using product interaction terms. Subgroup analyses included investigation of subjects above and below the median of the calorie-adjusted intake (Willet, Nutritional Epidemiology, Oxford University Press, 1990) of selected nutrients. […] All P-values were two-sided.

[1] = Experimental: as §1
At enrollment and at the time of each of the two follow-up colonoscopies, we obtained venous blood specimens in mineral-free tubes. Serum was initially stored at −20° C. or lower, pending shipment to Dartmouth for storage at −70° C. until analysis. At enrollment and the end of the study, we also assessed subjects' diet with a validated food frequency questionnaire (Block et al., Am. J. Epidemiol., 124:453-69, 1986). Every six months, we sent patients questionnaires regarding adherence to study agents; use of medications, over-the-counter drugs and nutritional supplements; and the occurrence of symptoms, illnesses, and hospitalizations. Recruitment into the study began in November 1988 and ended in April 1992. Follow-up ended in December 1996.
as §2

[2] = at least one endoscopy, study exams
[3] = at or before the first follow-up
[4] = calcium vs placebo, 913 subjects with at least one study colonoscopy
[5] = calcium vs placebo, completed the study, 2nd study interval
[6] = calcium vs placebo, completed the trial, first study interval
[7] = calcium vs placebo, second study interval
[8] = completed the study, 1st or 2nd study interval
[9] = completed the study, 1st study exam
[10] = completed the study, 2nd study exam
[11] = completed the study, 2nd study interval (main risk period)

Question: Which “Mean number of adenomas” value (colorectal adenomas; at least one endoscopy, 1st or 2nd interval) does the source give for `O=C([O-])[O-].[Ca+2]` [calcium, calcium carbonate] here?
Answer: 0.92

Question: And the “% with one or more adenomas” value (colorectal adenomas; [2])?
Answer: 42.3%

Question: And the “Mean number of adenomas” value (colorectal adenomas; [2])?
Answer: 0.86

Question: What about the “participants with an adenoma with severe atypia removed” value (colorectal adenomas; [3]) of the same molecule?
Answer: one

Question: What about the “patients with invasive cancer” value (colorectal adenomas; [3]) of the same molecule?
Answer: 2

Question: What about the “Ratio of the mean number of adenomas” value (colorectal adenomas; calcium vs placebo, adjusted, completed the study (832 subjects), 2nd study interval) of the same molecule?
Answer: 0.76

Question: What about the “unadjusted ratio of the average numbers of adenomas” value (colorectal adenomas; [4]) of the same molecule?
Answer: 0.74

Question: And the “unadjusted risk ratio of at least one adenoma after randomization” value (colorectal adenomas; [4])?
Answer: 0.85

Question: And the “unadjusted ratio of the average number of adenomas” value (colorectal adenomas; [5])?
Answer: 0.75

Question: And the “unadjusted risk ratio for at least one adenoma” value (colorectal adenomas; [5])?
Answer: 0.83

Question: What about the “unadjusted ratio of the average numbers of adenomas” value (colorectal adenomas; [6]) of the same molecule?
Answer: 0.73

Question: And the “unadjusted risk ratio for at least one adenoma” value (colorectal adenomas; [6])?
Answer: 0.77

Question: And the “unadjusted risk ratio for at least one adenoma 0.5 cm or greater versus no adenomas” value (colorectal adenomas; [7])?
Answer: 0.87

Question: What about the “unadjusted risk ratio, largest adenoma less than 0.5 cm versus no adenomas” value (colorectal adenomas; [7]) of the same molecule?
Answer: 0.75

Question: What about the “% with one or more adenomas” value (colorectal adenomas; [8]) of the same molecule?
Answer: 44.7%

Question: And the “Mean number of adenomas” value (colorectal adenomas; [8])?
Answer: 0.98

Question: What about the “% with one or more adenomas” value (colorectal adenomas; [9]) of the same molecule?
Answer: 24.4%

Question: And the “Mean number of adenomas” value (colorectal adenomas; [9])?
Answer: 0.40

Question: And the “Mean number of adenomas” value (colorectal adenomas; completed the study, 1st study interval)?
Answer: 0.43

Question: And the “% with one or more adenomas” value (colorectal adenomas; [10])?
Answer: 30.1%

Question: And the “Mean number of adenomas” value (colorectal adenomas; [10])?
Answer: 0.51

Question: What about the “mean size of the largest adenoma” value (colorectal adenomas; completed the study, 2nd study interval) of the same molecule?
Answer: 0.4 cm

Question: What about the “% with one or more adenomas” value (colorectal adenomas; [11]) of the same molecule?
Answer: 31.1%

Question: And the “Mean number of adenomas” value (colorectal adenomas; [11])?
Answer: 0.55

Question: And the “% with one or more adenomas” value (colorectal adenomas; completed the study, 2nd study interval (main risk period), listed as CALCIUM)?
Answer: 31.1%

Question: And the “number of patients with at least one colorectal adenoma” value (colorectal adenomas; completed the study, main risk period (2nd study interval))?
Answer: 127

Question: What about the “number of subjects with at least one adenoma” value (colorectal adenomas; completed the trial, up to and including the first follow-up exam) of the same molecule?
Answer: 103

Question: And the “adenomas with severe atypia removed” value (colorectal adenomas; during the main risk period)?
Answer: no adenomas with severe atypia were removed

Question: What about the “subjects with invasive large bowel cancer” value (colorectal adenomas; during the main risk period) of the same molecule?
Answer: 1

Question: What about the “subjects whose largest adenoma was less than 0.5 cm” value (colorectal adenomas; second study interval) of the same molecule?
Answer: 70

Question: What about the “subjects with an adenoma 0.5 cm or greater” value (colorectal adenomas; second study interval) of the same molecule?
Answer: 57

Question: And the “% with one or more adenomas” value (colorectal adenomas; subjects who completed the study (409 calcium), 1st study interval (randomization to first follow-up colonoscopy))?
Answer: 25%

Question: And the “% with one or more adenomas” value (colorectal adenomas; subjects who completed the study (409 calcium), 1st study interval (randomization to first follow-up colonoscopy), listed as CALCIUM)?
Answer: 25.2%

Question: What about the “% with one or more adenomas” value (colorectal adenomas; subjects who had at least one endoscopy (454 calcium), 1st or 2nd interval) of the same molecule?
Answer: 43.2%

Question: What about the “Hospitalized: All cancer, %” value ([1]; after randomization) of the same molecule?
Answer: (3.2) %

Question: And the “Hospitalized: Cardiac disease, %” value ([1]; after randomization)?
Answer: (10.8) %

Question: What about the “Hospitalized: Gastrointestinal disease, %” value ([1]; after randomization) of the same molecule?
Answer: (8.2) %

Question: And the “Hospitalized: Other, %” value ([1]; after randomization)?
Answer: (27.2) %

Question: What about the “Hospitalized: Stroke, %” value ([1]; after randomization) of the same molecule?
Answer: (2.6) %

Question: And the “Stopped treatment because of perceived toxicity, %” value ([1]; after randomization)?
Answer: (2.6) %

Question: And the “patients diagnosed with definite or probable urinary stones” value ([1]; after randomization)?
Answer: Two

Question: What about the “Subjects Hospitalized, %” value ([1]; after randomization, any reason) of the same molecule?
Answer: (37.1) %

Question: What about the “toxicity (in words)” value ([1]; calcium supplementation during the trial, listed as calcium carbonate) of the same molecule?
Answer: minimal

Question: And the “frequency of digestive symptoms (including constipation)” value ([1]; calcium vs placebo)?
Answer: did not differ materially

Question: And the “medical complaints and complications (in words)” value ([1]; calcium vs placebo)?
Answer: not associated with treatment assignment
